Test results from patent US11992560B2, “Electrospun fibers for a local release of an anti-inflammatory drug and a promyelinating drug” (ALMA MATER STUDIORUM—UNIVERSITÀ DI BOLOGNA, priority 2018, dated 2024).

System: LPS stimulated RAW 264.7 cells
Experiment: In vitro efficacy: gene expression (qPCR) in LPS stimulated RAW cells treated with conditioned medium
Format: cell-based, murine
Conditions: conditioned medium 24 h, LPS 500 ng/ml; respect to sc LPS or ibsc
Description: The murine macrophage cell line RAW 264.7 was purchased from the American Type Culture Collection (ATCC® TIB-71™). Cells were grown at 37° C. in DMEM high glucose medium (Thermo Fisher Scientific) supplemented with 10% heat-inactivated fetal bovine serum (FBS—Thermo Fisher Scientific), 1% penicillin/streptomycin (100 U ml-1/100 μg ml-1) (Thermo Fisher Scientific), in a humidified incubator of 5% CO2. When 70-80% confluency was reached, cells were detached mechanically with the scraper and subcultured in 75 cm2 flasks.
In order to evaluate the bioactivity of ibuprofen and T3 released from electrospun PLLA fibres conditioned medium was prepared ad described below. […] Three samples/group were analysed.
At the end of the treatments total RNA isolation was performed with the RNeasy Micro kit (Qiagen) following the manufacturer's instructions. Total RNA was eluted in RNase-free water and concentration estimated through absorbance values at 260, 280 and 320 nm (Nanodrop 2000 spectrophotometer, Thermo Scientific). […] Semi-quantitative real-time PCR was performed using the CFX96 real-time PCR system (Bio-Rad). […] Relative quantification of the target genes expression was calculated using the comparative threshold method 2^(—ΔΔCT). […]

## CC(C)Cc1ccc(C(C)C(=O)O)cc1 (stereo not shown) [SC+IBU, Ibuprofen]
  TNFα mRNA level (in words): comparable
